According to PMC13087548, “The Use of DeepQSAR Models for the Discovery of Peptides With Enhanced Antimicrobial and Antibiofilm Potential” (Molecular Informatics, 2026):
Read-outs that look alike come from different tables or passages of the source. Ends that are not written are not given here. Peptide text beside a SMILES is read from it.

How the values were obtained:
[1] = system: methicillin‐resistant Staphylococcus aureus (MRSA) biofilm; conditions: read-out: IC50 Biofilm; MRSA in 10% tryptic soy broth + 0.1% glucose, overnight 37°C, adhered biomass stained with 0.1% crystal violet, A595; peptide array samples; nplr fit
Description: (§1) Peptide arrays on cellulose membranes were made by Kinexus Bioinformatics Corporation (Vancouver, BC, Canada) and were obtained as cleaved free peptide associated with the punched‐out spot of the cellulose membrane. Stock solutions of the peptide array samples were prepared by dissolving the free peptide in 200 µL of endotoxin‐free sterile water, incubating at room temperature for ~ 1 h, and then transferring the resulting peptide solution to a sterile microfuge tube for subsequent antimicrobial activity assays. The concentration of the stock peptide array samples was determined by measuring the absorbance at 280 nm of the solution (in duplicate) on a BioTek Epoch Microplate Spectrophotometer using the Take3TM Multi‐Volume Plate. A theoretical extinction coefficient of each peptide was determined based on the number of Trp and Try residues1 in the peptide sequence according to the formula: (#Trp) × 5500 M^− ^1 cm^− ^1 + (#Tyr) × 1490 M^− ^1 cm^− ^1, and the concentration of the peptide in solution was calculated according to the Beer–Lambert law. Any Cys residues within the peptide samples were assumed not to be present in a disulfide bond, so their contribution to the extinction coefficient at 280 nm was ignored.
(§2) Peptides were synthesized on peptide arrays and tested as described previously. Briefly, the antimicrobial activity and biofilm inhibition activity of the peptide array samples were assessed against methicillin‐resistant Staphylococcus aureus (MRSA). Briefly, twofold serial dilutions of the peptide array sample (10 μL final volume) were prepared in 96‐well plates and then 90 μL of a 1:100 dilution of an overnight culture of MRSA diluted in 10% tryptic soy broth supplemented with 0.1% glucose was added to each well and the plates were incubated overnight at 37°C. The following day, bacterial growth was quantified by measuring the optical density at 600 nm (OD600) of each sample well while the amount of biofilm was quantified by rinsing the wells of the plate with distilled water and staining the adhered biomass with 0.1% crystal violet solution. The amount of adhered biomass was quantified by recording the absorbance at 595 nm (A595). Dose–response curves were drawn for each peptide based on the bacterial growth (OD600) or biofilm inhibition (A595) and normalizing the percent of peptide inhibition relative to untreated bacteria (100% growth) or sterile media (0% growth). The concentration of peptide required to inhibit 50% of bacterial or biofilm growth (IC50) was calculated by nonlinear regression fit of the dose–response curves using the N‐Parameter Logistic Regression (nplr) package.

[2] = system: methicillin‐resistant Staphylococcus aureus (MRSA); conditions: read-out: IC50 antimicrobial (planktonic); MRSA in 10% tryptic soy broth + 0.1% glucose, overnight 37°C, growth by OD600; peptide array samples; nplr fit
Description: as §1, §2

[3] = system: human PBMCs; experiment: PBMC cytotoxicity assay; type: cell-based
Excerpt: (§3) To evaluate the safety profiles of predicted peptides, we conducted hemolysis and PBMC cytotoxicity assays on three representative candidates (J20: LKIKVHIYRMKR, J28: FRVCYRGICYRR, J39: […]). These peptides were randomly selected from the top 22 peptides predicted by our classification model to outperform the reference peptide IDR‐1018 in antibiofilm activity. All three peptides were synthesized at > 95% purity and tested in standard in vitro assays.

[4] = system: biofilm; experiment: Minimum biofilm inhibitory concentration (MBIC); type: cell-based; conditions: peptides > 95% purity; Table S1
[5] = system: human red blood cells; experiment: Hemolysis assay; type: cell-based
Excerpt: as §3

| Molecule | IC50 [1] | IC50 [2] | other results |
| --- | --- | --- | --- |
| LFKFLGKKVLKT-NH2 [compound 9] | 0.47 µM |  |  |
| RLHGFLIRMRTR-NH2 [compound 44] |  | 1.19 µM |  |
| RRRAKGRIRLIV-NH2 [compound 62] |  | 0.89 µM |  |
| RVVRRKGRIYIL-NH2 [compound 81] | 0.44 µM |  |  |
| RALKKIIKRLCR-NH2 [compound 86] | 0.38 µM | 0.71 µM |  |
| LKIKVHIYRMKR-NH2 [compound 20] | 0.35 µM |  | PBMC IC50 (cytotoxicity) [3]: 166.1 mg/L; Biofilm-inhibitory concentration (MBIC) [4]: 1 to 4 µg/mL; Hemolysis IC50 ([5]; red cells of human): > 250 mg/L |
| WKKKGRMRWKWI-NH2 [compound 10] | 0.27 µM |  |  |
| RGFVRLKKWFNI-NH2 [compound 39] | 0.23 µM |  | PBMC IC50 (cytotoxicity) ([3]; human PBMCs, peptides > 95% purity): > 250 mg/L; Biofilm-inhibitory concentration (MBIC) [4]: 1 to 4 µg/mL; Hemolysis IC50 ([5]; human erythrocytes, concentration range 1–256 μg/mL, peptides > 95% purity): > 250 mg/L |
| KLVRRKGRLYVI-NH2 [compound 50] | 0.4 µM |  |  |
| VRLIVAVRIWRR-NH2 [IDR‐1018, reference compound] | 1.42 µM | 1.73 µM |  |
| CC[C@H](C)[C@H](NC(=O)CNC(=O)[C@H](CCCNC(=N)N)NC(=O)[C@H](Cc1ccc(O)cc1)NC(=O)[C@H](CS)NC(=O)[C@@H](NC(=O)[C@H](CCCNC(=N)N)NC(=O)[C@@H](N)Cc1ccccc1)C(C)C)C(=O)N[C@@H](CS)C(=O)N[C@@H](Cc1ccc(O)cc1)C(=O)N[C@@H](CCCNC(=N)N)C(=O)N[C@@H](CCCNC(=N)N)C(N)=O [compound 28] (H-FRVCYRGICYRR-NH2; N-terminus assumed) |  |  | PBMC IC50 (cytotoxicity) [3]: > 250 mg/L; Hemolysis IC50 ([5]; red cells of human): > 250 mg/L |
| RARGRKRLVVTI-NH2 [compound 40] | 0.3 µM |  |  |
| GLKSFARVLKKI-NH2 [compound 33] |  | 1.15 µM |  |
